Test results taken from ChEMBL document CHEMBL1201862, “PubChem BioAssay data set” (2004).
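How tested: cells in 96-well plates exposed to compound for 48 hours at five concentrations. GI50 is the concentration that inhibits growth by half.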 Active and inactive are the calls of the source. Cut-off read from the data, not from the text of the source: active = GI50 up to about 1.1 µM and inactive = higher.

Assays:
Experiment in all cases: NCI tumour cell line growth inhibition, 48 h
SW-620 = tested on: SW-620
UO-31 = tested on: UO-31
COLO 205 = tested on: COLO 205
LOX IMVI = tested on: LOX IMVI
U-251 = tested on: U-251
RPMI-8226 = tested on: RPMI-8226
T47D = tested on: T47D
MDA-N = tested on: MDA-N
UACC-257 = tested on: UACC-257
OVCAR-3 = tested on: OVCAR-3
SNB-19 = tested on: SNB-19
NCI/ADR-RES = tested on: NCI/ADR-RES
IGROV-1 = tested on: IGROV-1
SN12C = tested on: SN12C
HCT-116 = tested on: HCT-116
PC-3 = tested on: PC-3
DU-145 = tested on: DU-145
OVCAR-5 = tested on: OVCAR-5
SNB-75 = tested on: SNB-75
HCT-15 = tested on: HCT-15
M14 = tested on: M14
SK-MEL-5 = tested on: SK-MEL-5
SF-295 = tested on: SF-295
CCRF-CEM = tested on: CCRF-CEM
786-0 = tested on: 786-0
HT-29 = tested on: HT-29
MDA-MB-231 = tested on: MDA-MB-231
MOLT-4 = tested on: MOLT-4
UACC-62 = tested on: UACC-62
SK-MEL-2 = tested on: SK-MEL-2
NCI-H226 = tested on: NCI-H226
HOP-62 = tested on: HOP-62
OVCAR-8 = tested on: OVCAR-8
HL-60 = tested on: HL-60
TK-10 = tested on: TK-10
Malme-3M = tested on: Malme-3M
MDA-MB-435 = tested on: MDA-MB-435
ACHN = tested on: ACHN
EKVX = tested on: EKVX
BT-549 = tested on: BT-549
SF-539 = tested on: SF-539
SK-MEL-28 = tested on: SK-MEL-28
OVCAR-4 = tested on: OVCAR-4
NCI-H460 = tested on: NCI-H460
SR = tested on: SR
HCC 2998 = tested on: HCC 2998
NCI-H522 = tested on: NCI-H522
NCI-H23 = tested on: NCI-H23
KM12 = tested on: KM12
CAKI-1 = tested on: CAKI-1
HOP-92 = tested on: HOP-92
RXF 393 = tested on: RXF 393
SF-268 = tested on: SF-268
MCF7 = tested on: MCF7
K562 = tested on: K562
A498 = tested on: A498
A549 = tested on: A549
SK-OV-3 = tested on: SK-OV-3

Measured: GI50

COc1ccccc1C1CC(=O)CC(c2ccccc2OC)C12C(=O)NC(=S)NC2=O (stereo unspecified)
42.5 µM: HCT-15
inactive: SW-620 48.5 µM | UO-31 87.9 µM | COLO 205 32.6 µM | LOX IMVI 33.1 µM | U-251 > 100 µM | RPMI-8226 19.9 µM | T47D 58.5 µM | MDA-N 18.2 µM | UACC-257 88.3 µM | OVCAR-3 80.2 µM | SNB-19 > 100 µM | NCI/ADR-RES > 100 µM | IGROV-1 68.9 µM | SN12C 65.8 µM | HCT-116 80.5 µM | PC-3 90.6 µM | DU-145 57.9 µM | OVCAR-5 > 100 µM | SNB-75 56 µM | M14 88.3 µM | SK-MEL-5 50.2 µM | SF-295 > 100 µM | CCRF-CEM 46.6 µM | 786-0 > 100 µM | HT-29 73.8 µM | MDA-MB-231 38.4 µM | MOLT-4 35.7 µM | UACC-62 > 100 µM | SK-MEL-2 73.8 µM | NCI-H226 > 100 µM | HOP-62 > 100 µM | OVCAR-8 > 100 µM | HL-60 9.93 µM | TK-10 > 100 µM | Malme-3M 79.6 µM | MDA-MB-435 25.4 µM | ACHN 28.2 µM | EKVX > 100 µM | BT-549 > 100 µM | SF-539 81.8 µM | SK-MEL-28 32.4 µM | OVCAR-4 99.8 µM | NCI-H460 54.5 µM | SR 53.7 µM | HCC 2998 62.7 µM | NCI-H522 51.3 µM | NCI-H23 > 100 µM | KM12 62.8 µM | CAKI-1 68.9 µM | HOP-92 43.3 µM | RXF 393 59.4 µM | SF-268 > 100 µM | MCF7 46.8 µM | K562 47.6 µM

CC1CC/C(=C\c2ccc(N(C)C)cc2)C(=O)/C1=C/c1ccc(N(C)C)cc1 (stereo unspecified)
active: Malme-3M 0.228 µM
> 100 µM: HCT-15
inactive: SW-620 > 100 µM | UO-31 > 100 µM | COLO 205 > 100 µM | LOX IMVI > 100 µM | U-251 > 100 µM | T47D > 100 µM | MDA-N > 100 µM | UACC-257 > 100 µM | OVCAR-3 > 100 µM | NCI/ADR-RES > 100 µM | IGROV-1 > 100 µM | SN12C > 100 µM | HCT-116 > 100 µM | PC-3 > 100 µM | OVCAR-5 > 100 µM | SNB-75 > 100 µM | M14 > 100 µM | SK-MEL-5 > 100 µM | A498 > 100 µM | SF-295 > 100 µM | CCRF-CEM > 100 µM | 786-0 > 100 µM | HT-29 > 100 µM | MDA-MB-231 > 100 µM | MOLT-4 > 100 µM | UACC-62 > 100 µM | SK-MEL-2 > 100 µM | NCI-H226 > 100 µM | HOP-62 > 100 µM | OVCAR-8 > 100 µM | TK-10 > 100 µM | MDA-MB-435 > 100 µM | ACHN > 100 µM | EKVX > 100 µM | BT-549 > 100 µM | SF-539 > 100 µM | SK-MEL-28 > 100 µM | OVCAR-4 > 100 µM | SR > 100 µM | A549 > 100 µM | HCC 2998 > 100 µM | NCI-H522 > 100 µM | NCI-H23 > 100 µM | KM12 > 100 µM | CAKI-1 > 100 µM | SK-OV-3 > 100 µM | MCF7 > 100 µM | K562 > 100 µM

CC1(C)[C@@H]2C[C@H]1c1cnc(-c3ccccn3)cc1C2CCCCC[C@@H]1c2cc(-c3ccccn3)ncc2[C@@H]2C[C@H]1C2(C)C (stereo partly specified)
active: SW-620 0.83 µM | UO-31 0.853 µM | COLO 205 0.578 µM | LOX IMVI 0.625 µM | U-251 0.897 µM | UACC-257 0.655 µM | OVCAR-3 0.404 µM | HCT-116 0.489 µM | SNB-75 0.74 µM | SF-295 0.871 µM | CCRF-CEM 0.502 µM | 786-0 0.493 µM | HT-29 0.759 µM | MOLT-4 0.357 µM | UACC-62 0.946 µM | HL-60 0.426 µM | SF-539 0.199 µM | OVCAR-4 0.384 µM | SR 0.653 µM | A549 0.869 µM | CAKI-1 0.628 µM | RXF 393 0.745 µM | SF-268 0.687 µM | MCF7 0.809 µM | K562 0.473 µM
5.9 µM: HCT-15
inactive: RPMI-8226 2.51 µM | T47D 1.69 µM | MDA-N 1.36 µM | SNB-19 1.78 µM | NCI/ADR-RES 25.6 µM | IGROV-1 1.63 µM | SN12C 1.53 µM | PC-3 1.32 µM | DU-145 1.41 µM | OVCAR-5 > 20.3 µM | M14 1.61 µM | SK-MEL-5 4.18 µM | A498 3.5 µM | MDA-MB-231 8.15 µM | SK-MEL-2 7.1 µM | NCI-H226 1.23 µM | HOP-62 1.42 µM | OVCAR-8 1.88 µM | TK-10 > 49.2 µM | Malme-3M 3.19 µM | MDA-MB-435 1.38 µM | ACHN 1.82 µM | EKVX 2.56 µM | BT-549 14.1 µM | SK-MEL-28 2.29 µM | NCI-H460 1.99 µM | HCC 2998 7.1 µM | NCI-H522 1.71 µM | NCI-H23 1.82 µM | KM12 1.48 µM
